Test results published in PMC10344917, “Affinity and cooperativity modulate ternary complex formation to drive targeted protein degradation” (Nature Communications, 2023).

Key:
[1] = target: T1, VBC / SMARCA2^BD ternary complex (Homo sapiens, UniProt P40337+P51531); experiment: SPR ternary complex binding, VBC surface with preformed PROTAC/SMARCA2 bromodomain complex; settings: for Kd: SPR, VHL, PROTAC, error SEM, N = 3, read-out: KLPT (ternary complex binding affinity)
T1 construct: VHL (54-213), ElonginB (17-112) ElonginC (1-104); SMARCA2^BD 1373–1511 ∆1400–1417; His6 (N, cleaved yes); made in house
Method: SPR experiments were performed on a Biacore 8 K or T200 instrument (Cytiva). […] The running buffer during immobilization was PBS with 0.005% P20. Either high-density (3000-4000 RU) or low-density (300-400 RU) VBC-functionalized surfaces were created, followed by equilibration in the running buffer for 3 h.
PROTACs (10 mM in 100% DMSO) were initially prepared at 200 nM in a running buffer (20 mM Tris pH 8.0, 250 mM NaCl, 1 mM TCEP, 0.01% P20, 0.2 mg/ml BSA) with a concentration of 2% DMSO. This solution was mixed at 1:1 ratio with a solution of 5 μM of the SMARCA2 or BRD4 bromodomain protein in the running buffer. This complex was then serially diluted in the running buffer containing 2.5 μM SMARCA2 or BRD4 and 2% DMSO (5-point five-fold serial dilution). For ternary experiments, solutions were injected sequentially in single-cycle kinetic format without regeneration (contact time 60 s, flow rate 80 μL/min, dissociation time 300 s) using a stabilization period of 60 s and syringe wash (50% DMSO) between injections onto a low-density VBC-functionalized surface.
Raw sensorgrams were processed by performing double reference subtraction, solvent correction, and analysis was done using Biacore Insight Evaluation Software. Kinetic analysis was performed by fitting data to a 1:1 Langmuir interaction model and a steady-state affinity model was used to evaluate equilibrium binding affinity.

SMARCA2 = target: T2, SMARCA2 (Homo sapiens, UniProt P51531); experiment: SMARCA2 degradation time course in A375 cells (MSD); assay type: cell-based; settings: single concentration at or near maximal activity
T2 construct: endogenous in cells; host or cells: A375
Excerpt: This characteristic has been described as cooperativity (α > 1) and likely results from favorable PPIs present in the ternary complex. […] To measure the rate of protein degradation, we treated A375 cells with a single concentration of each PROTAC and measured the decrease in target abundance over time as shown in Figs. 4b and5b.
MSD electrochemiluminescence signals were subtracted by the average background signal from wells with lysis buffer alone. Normalized MSD values (POC) for individual compound treated wells were acquired by dividing background-subtracted assay signal by signal from vehicle control wells (cells + 0.1% DMSO) and multiplying by 100. This POC data was graphed using a nonlinear regression curve fit xy analysis and a log(inhibitor) vs response —variable slope (four parameter) model for dose response curves (Graphpad Prism 9, San Diego, CA, USA). To calculate area under the curve, all points on the curve were connected and vertical lines were drawn from each point down to y = 0, generating a series of trapezoids. The area of each trapezoid was determined using the equation A = (1/2)(h)(b1 + b2), where h = 1 (distance between points), b1 = POC of the first point and b2 = POC of the second point. The sum of all trapezoids provides an approximate area under the curve (AUC). For half-life (t1/2) determination in time course studies, a one-phase decay model was used for curve fitting and the time at which the curve crossed 50 POC was determined through interpolation (Graphpad Prism 9, San Diego, CA, USA). Additionally initial rate of degradation was determined by multiplying 100 with rate constant (τ = 0.693/t1/2).

T2 sequence (P51531 whole entry): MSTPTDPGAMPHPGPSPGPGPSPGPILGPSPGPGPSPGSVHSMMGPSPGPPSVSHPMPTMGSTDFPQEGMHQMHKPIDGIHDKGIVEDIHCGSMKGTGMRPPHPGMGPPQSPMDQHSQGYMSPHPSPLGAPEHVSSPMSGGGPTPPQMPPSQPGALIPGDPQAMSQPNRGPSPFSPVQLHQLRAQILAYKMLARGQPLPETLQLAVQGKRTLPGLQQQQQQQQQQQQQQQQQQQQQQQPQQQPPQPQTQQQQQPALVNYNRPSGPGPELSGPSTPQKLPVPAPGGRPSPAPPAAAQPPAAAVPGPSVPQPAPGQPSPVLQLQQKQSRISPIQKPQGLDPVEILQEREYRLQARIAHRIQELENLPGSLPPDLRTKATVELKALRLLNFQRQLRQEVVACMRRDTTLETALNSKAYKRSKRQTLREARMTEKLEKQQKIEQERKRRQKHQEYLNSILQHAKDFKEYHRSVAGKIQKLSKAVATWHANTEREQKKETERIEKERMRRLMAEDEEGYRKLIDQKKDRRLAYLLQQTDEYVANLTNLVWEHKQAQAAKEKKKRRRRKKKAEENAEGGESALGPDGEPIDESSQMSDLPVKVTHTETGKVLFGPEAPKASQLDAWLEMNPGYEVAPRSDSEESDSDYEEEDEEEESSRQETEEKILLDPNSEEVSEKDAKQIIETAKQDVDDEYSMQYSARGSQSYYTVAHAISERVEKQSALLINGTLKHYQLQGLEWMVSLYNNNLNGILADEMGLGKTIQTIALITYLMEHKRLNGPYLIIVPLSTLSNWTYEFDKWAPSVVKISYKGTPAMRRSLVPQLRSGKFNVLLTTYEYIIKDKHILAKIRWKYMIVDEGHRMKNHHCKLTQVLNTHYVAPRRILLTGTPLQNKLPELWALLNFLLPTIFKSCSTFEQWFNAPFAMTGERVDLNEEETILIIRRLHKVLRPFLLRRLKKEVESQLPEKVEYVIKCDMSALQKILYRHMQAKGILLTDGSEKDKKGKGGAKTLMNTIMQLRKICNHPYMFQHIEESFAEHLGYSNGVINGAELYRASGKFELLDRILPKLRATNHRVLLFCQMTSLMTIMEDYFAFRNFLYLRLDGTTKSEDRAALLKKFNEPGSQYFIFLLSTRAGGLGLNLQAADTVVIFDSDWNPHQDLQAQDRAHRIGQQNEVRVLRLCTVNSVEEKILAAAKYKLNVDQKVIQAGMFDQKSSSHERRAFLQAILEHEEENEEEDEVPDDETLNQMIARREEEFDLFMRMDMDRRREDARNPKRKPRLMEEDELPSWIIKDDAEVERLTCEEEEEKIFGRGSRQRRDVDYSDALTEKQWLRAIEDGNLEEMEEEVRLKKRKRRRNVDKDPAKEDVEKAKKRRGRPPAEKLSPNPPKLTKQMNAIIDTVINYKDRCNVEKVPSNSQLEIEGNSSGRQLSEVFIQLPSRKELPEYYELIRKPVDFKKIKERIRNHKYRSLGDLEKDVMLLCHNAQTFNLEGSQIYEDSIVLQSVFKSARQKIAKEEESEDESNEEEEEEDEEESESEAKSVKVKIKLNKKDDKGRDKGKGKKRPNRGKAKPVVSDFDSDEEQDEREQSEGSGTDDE
T1 sequence (P40337 54-213): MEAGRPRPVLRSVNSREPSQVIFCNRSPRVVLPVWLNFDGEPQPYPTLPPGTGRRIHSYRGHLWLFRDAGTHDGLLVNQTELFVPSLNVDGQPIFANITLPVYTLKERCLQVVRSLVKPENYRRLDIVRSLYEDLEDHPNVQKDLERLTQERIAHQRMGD
T1 sequence (P51531 other isoform, or with tags, fused parts or gaps): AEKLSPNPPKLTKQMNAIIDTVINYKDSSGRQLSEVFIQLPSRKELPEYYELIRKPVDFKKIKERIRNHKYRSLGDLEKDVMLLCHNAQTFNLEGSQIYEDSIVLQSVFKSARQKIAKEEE
T1 sequence (Q15370 1-104, further chain): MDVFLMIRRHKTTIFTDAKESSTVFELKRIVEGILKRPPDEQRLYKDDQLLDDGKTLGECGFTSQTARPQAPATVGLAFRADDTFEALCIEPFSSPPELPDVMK
T1 sequence (Q15369 17-112, further chain): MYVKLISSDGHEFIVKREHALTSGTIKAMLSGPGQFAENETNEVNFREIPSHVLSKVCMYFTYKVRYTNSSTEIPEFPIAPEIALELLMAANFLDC

Compound	α (cooperativity, KLP/KLPT) [1]	Kd [1] [nM]	Initial Degradation Rate (SMARCA2) [%/min]
Cc1ncsc1-c1ccc(CNC(=O)C2C[C@@H](O)CN2C(=O)C(NC(=O)C2(F)CC2)C(C)(C)C)c(OCCc2ccc(CN3CCN(c4cc(-c5ccccc5O)nnc4N)CC3)cc2)c1 (stereo in doubt) [Compound 11, (2R,4R)-N-(2-(4-((4-(3-amino-6-(2-hydroxyphenyl)pyridazin-4-yl)piperazin-1-yl)methyl)phenethoxy)-4-(4-methylthiazol-5-yl)benzyl)-1-((R)-2-(1-fluorocyclopropane-1-carboxamido)-3,3-dimethylbutanoyl)-4-hydroxypyrrolidine-2-carboxamide, reference compound]	0.55	108 ± 14	0.25
Cc1ncsc1-c1ccc([C@H](C)NC(=O)[C@@H]2C[C@@H](O)CN2C(=O)[C@@H](NC(=O)c2cccc(N3CCN(c4cc(-c5ccccc5O)nnc4N)CC3)c2)C(C)(C)C)cc1 [Compound 4, (2S,4R)-1-((S)-2-(3-(4-(3-Amino-6-(2-hydroxyphenyl)pyridazin-4-yl)piperazin-1-yl)benzamido)-3,3-dimethylbutanoyl)-4-hydroxy-N-((S)-1-(4-(4-methylthiazol-5-yl)phenyl)ethyl)pyrrolidine-2-carboxamide]	2.6	64 ± 7	2.06
Cc1ncsc1-c1ccc([C@H](C)NC(=O)[C@@H]2C[C@@H](O)CN2C(=O)[C@@H](NC(=O)c2cccc(N3CCN(c4cc(-c5ccccc5O)nnc4N)CC3)n2)C(C)(C)C)cc1 [Compound 2, 6-(4-(3-Amino-6-(2-hydroxyphenyl)pyridazin-4-yl)piperazin-1-yl)-N-((S)-1-((2S,4R)-4-hydroxy-2-(((S)-1-(4-(4-methylthiazol-5-yl)phenyl)ethyl)carbamoyl)pyrrolidin-1-yl)-3,3-dimethyl-1-oxobutan-2-yl)picolinamide]	6.5	33 ± 4	2.02
Cc1ncsc1-c1ccc([C@H](C)NC(=O)[C@@H]2C[C@@H](O)CN2C(=O)[C@@H](NC(=O)c2ccnc(N3CCN(c4cnnc(-c5ccccc5O)c4)CC3)c2)C(C)(C)C)cc1 [Compound 10, N-((S)-1-((2S,4R)-4-Hydroxy-2-(((S)-1-(4-(4-methylthiazol-5-yl)phenyl)ethyl)carbamoyl)pyrrolidin-1-yl)-3,3-dimethyl-1-oxobutan-2-yl)-2-(4-(6-(2-hydroxyphenyl)pyridazin-4-yl)piperazin-1-yl)isonicotinamide]	0.24	250 ± 30	0.56
Cc1ncsc1-c1ccc([C@H](C)NC(=O)[C@@H]2C[C@@H](O)CN2C(=O)[C@@H](NC(=O)Cc2ccnc(N3CCN(c4cc(-c5ccccc5O)nnc4N)CC3)c2)C(C)(C)C)cc1 [Compound 7, (2S,4R)-1-((S)-2-(2-(2-(4-(3-Amino-6-(2-hydroxyphenyl)pyridazin-4-yl)piperazin-1-yl)pyridin-4-yl)acetamido)-3,3-dimethylbutanoyl)-4-hydroxy-N-((S)-1-(4-(4-methylthiazol-5-yl)phenyl)ethyl)pyrrolidine-2-carboxamide]	0.11	80 ± 6	0.78
Cc1ncsc1-c1ccc([C@H](C)NC(=O)[C@@H]2C[C@@H](O)CN2C(=O)[C@@H](NC(=O)c2csc(N3CCN(c4cc(-c5ccccc5O)nnc4N)CC3)n2)C(C)(C)C)cc1 [Compound 5, 2-(4-(3-Amino-6-(2-hydroxyphenyl)pyridazin-4-yl)piperazin-1-yl)-N-((S)-1-((2S,4R)-4-hydroxy-2-(((S)-1-(4-(4-methylthiazol-5-yl)phenyl)ethyl)carbamoyl)pyrrolidin-1-yl)-3,3-dimethyl-1-oxobutan-2-yl)thiazole-4-carboxamide]	1.8	46.8 ± 6.7	1.9

Now those with a lower Kd [1], led by results:

α (cooperativity, KLP/KLPT) [1]	Kd [1] [nM]	Initial Degradation Rate (SMARCA2) [%/min]	Compound
0.26	27 ± 3	1.34	Cc1ncsc1-c1ccc([C@H](C)NC(=O)[C@@H]2C[C@@H](O)CN2C(=O)[C@@H](NC(=O)CCc2ccnc(N3CCN(c4cc(-c5ccccc5O)nnc4N)CC3)c2)C(C)(C)C)cc1 [Compound 8, (2S,4R)-1-((S)-2-(3-(2-(4-(3-Amino-6-(2-hydroxyphenyl)pyridazin-4-yl)piperazin-1-yl)pyridin-4-yl)propanamido)-3,3-dimethylbutanoyl)-4-hydroxy-N-((S)-1-(4-(4-methylthiazol-5-yl)phenyl)ethyl)pyrrolidine-2-carboxamide]
12.8	4.7 ± 1	1.9	Cc1ncsc1-c1ccc([C@H](C)NC(=O)[C@@H]2C[C@@H](O)CN2C(=O)[C@@H](NC(=O)c2ccnc(N3CCN(c4cc(-c5ccccc5O)nnc4N)CC3)c2)C(C)(C)C)cc1 [Compound 1, 2-(4-(3-Amino-6-(2-hydroxyphenyl)pyridazin-4-yl)piperazin-1-yl)-N-((S)-1-((2S,4R)-4-hydroxy-2-(((S)-1-(4-(4-methylthiazol-5-yl)phenyl)ethyl)carbamoyl)pyrrolidin-1-yl)-3,3-dimethyl-1-oxobutan-2-yl)isonicotinamide]
2	5.6 ± 2	3.5	Cc1ncsc1-c1ccc([C@H](C)NC(=O)[C@@H]2C[C@@H](O)CN2C(=O)[C@@H](NC(=O)CN2CCN(c3cc(-c4ccccc4O)nnc3N)CC2)C(C)(C)C)cc1 [Compound 6, (2S,4R)-1-((S)-2-(2-(4-(3-Amino-6-(2-hydroxyphenyl)pyridazin-4-yl)piperazin-1-yl)acetamido)-3,3-dimethylbutanoyl)-4-hydroxy-N-((S)-1-(4-(4-methylthiazol-5-yl)phenyl)ethyl)pyrrolidine-2-carboxamide, reference compound]
